Results reported in the supplement of paper PMC10307832.

Columns and labels:
Assay in all cases: relative viability (nuclei count vs DMSO), 5 days (fraction); higher = more cells survive
XMD14-99 + Olaparib = compound: CN1CCN(CC1)C2=CC(=C(C=C2)NC3=NC(=C(S3)C(=O)C4=C(C=CC=C4Cl)Cl)N)OC [XMD14-99] + O=C(c1cc(Cc2n[nH]c(=O)c3ccccc23)ccc1F)N1CCN(C(=O)C2CC2)CC1 [Olaparib] (partner 8 µM)
Outline: (§1)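 Each reported value is a median over duplicate plates. It expresses relative viability: treated-well nuclei count divided by vehicle-well nuclei count. Lung cancer cell lines in 1536-well plates were dosed by pin tool a day after seeding, alone with one drug or with a fixed anchor-drug dose plus five library-drug doses (not always all listed) in √10 steps, and nuclei were counted after 5 days.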

AZD1208 + Trametinib = compound: N[C@@H]1CCCN(c2c(/C=C3\SC(=O)NC3=O)cccc2-c2ccccc2)C1 [AZD1208] + CC(=O)Nc1cccc(-n2c(=O)n(C3CC3)c(=O)c3c(Nc4ccc(I)cc4F)n(C)c(=O)c(C)c32)c1 [Trametinib] (partner 0.02 µM)
Outline: as §1

AZD1208 + OSI-027 = compound: N[C@@H]1CCCN(c2c(/C=C3\SC(=O)NC3=O)cccc2-c2ccccc2)C1 [AZD1208] + COc1cccc2cc(-c3nc([C@H]4CC[C@H](C(=O)O)CC4)n4ncnc(N)c34)[nH]c12 [OSI-027] (partner 0.5 µM)
Outline: as §1

AZD1208 + Crizotinib = compound: N[C@@H]1CCCN(c2c(/C=C3\SC(=O)NC3=O)cccc2-c2ccccc2)C1 [AZD1208] + C[C@@H](Oc1cc(-c2cnn(C3CCNCC3)c2)cnc1N)c1c(Cl)ccc(F)c1Cl [Crizotinib] (partner 1 µM)
Outline: as §1

Cell Line | relative viability (XMD14-99 + Olaparib; first compound 0.08 µM) | relative viability (XMD14-99 + Olaparib; first compound 0.8 µM) | relative viability (XMD14-99 + Olaparib; first compound 2.53 µM) | relative viability (XMD14-99 + Olaparib; first compound 8 µM) | relative viability (AZD1208 + Trametinib; first compound 0.08 µM) | relative viability (AZD1208 + Trametinib; first compound 0.253 µM) | relative viability (AZD1208 + Trametinib; first compound 0.8 µM) | relative viability (AZD1208 + Trametinib; first compound 2.53 µM) | relative viability (AZD1208 + Trametinib; first compound 8 µM) | relative viability (AZD1208 + OSI-027; first compound 0.08 µM) | relative viability (AZD1208 + OSI-027; first compound 0.253 µM) | relative viability (AZD1208 + OSI-027; first compound 0.8 µM) | relative viability (AZD1208 + OSI-027; first compound 2.53 µM) | relative viability (AZD1208 + OSI-027; first compound 8 µM) | relative viability (AZD1208 + Crizotinib; first compound 0.08 µM) | relative viability (AZD1208 + Crizotinib; first compound 0.253 µM) | relative viability (AZD1208 + Crizotinib; first compound 0.8 µM) | relative viability (AZD1208 + Crizotinib; first compound 2.53 µM) | relative viability (AZD1208 + Crizotinib; first compound 8 µM)
COR-L23 | 0.345 | 0.298 | 0.298 | 0.193 | 0.511 | 0.581 | 0.525 | 0.57 | 0.301 | 0.762 | 0.779 | 0.642 | 0.728 | 0.452 | 0.741 | 0.661 | 0.699 | 0.725 | 0.647
HCC-78 | 0.716 | 0.799 | 0.724 | 0.589 | 0.689 | 0.806 | 0.702 | 0.834 | 0.919 | 0.41 | 0.395 | 0.375 | 0.374 | 0.332 | 0.338 | 0.366 | 0.333 | 0.356 | 0.323
NCI-H838 | 0.736 | 0.754 | 0.637 | 0.45 | 0.482 | 0.629 | 0.448 | 0.476 | 0.457 | 0.378 | 0.453 | 0.38 | 0.326 | 0.301 | 0.967 | 0.806 | 0.892 | 0.843 | 0.758
NCI-H2126 | 0.96 | 0.87 | 0.736 | 0.759 | 0.576 | 0.524 | 0.498 | 0.467 | 0.434 | 0.74 | 0.704 | 0.68 | 0.613 | 0.674 | 0.993 | 1.04 | 0.991 | 1.01 | 0.974
BEN | 0.979 | 1.06 | 0.786 | 0.773 | 0.843 | 0.754 | 0.636 | 0.768 | 0.576 | 0.301 | 0.254 | 0.278 | 0.294 | 0.238 | 0.729 | 0.825 | 0.611 | 0.639 | 0.402
LCLC-103H | 0.764 | 0.779 | 0.752 | 0.657 | 0.63 | 0.651 | 0.683 | 0.686 | 0.681 | 0.485 | 0.371 | 0.378 | 0.382 | 0.376 | 1.03 | 1.11 | 1.05 | 1.31 | 1.03
EKVX | 0.763 | 0.837 | 0.904 | 0.73 | 0.35 | 0.387 | 0.306 | 0.309 | 0.45 | 0.674 | 0.651 | 0.634 | 0.673 | 0.648 | 0.887 | 1.29 | 0.86 | 1.01 | 0.88
LXF-289 | 1.06 | 1.01 | 1.11 | 0.931 | 0.678 | 0.629 | 0.673 | 0.694 | 0.747 | 0.821 | 0.814 | 0.602 | 0.647 | 0.648 | 0.853 | 0.894 | 0.8 | 0.814 | 0.928
